Data from patent US20230074545A1, “TREATMENT OF CANCER WITH CDK12/13 INHIBITORS” (Kinnate Biopharma Inc., priority 2019, published 2023).

How the values were obtained:
Test in all cases: Radiometric kinase panel
Format in all cases: biochemical
FYN = biological target: T1, FYN (Homo sapiens, UniProt P06241)
T1 construct: purchased ProQinase GmbH (Reaction Biology)
Outline: (§1)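 Activity was measured radiometrically from [gamma-33P]-ATP incorporation into substrate. The kinases were recombinant human GST- or His-tagged proteins, full-length or active fragments, expressed in Sf9 or E. coli. Compound in 10% DMSO was added before the enzyme/substrate mix, which started the reaction.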

FAK = biological target: T2, FAK (Homo sapiens, UniProt Q05397)
T2 construct: either as full-length or enzymatically active fragments; purchased ProQinase GmbH (Reaction Biology); host or cells: Sf9 insect cells or E. coli
Outline: as §1

EPHA1 = biological target: T3, EPHA1 (Homo sapiens, UniProt P21709)
T3 construct: either as full-length or enzymatically active fragments; purchased ProQinase GmbH (Reaction Biology)
Outline: as §1

AuroraB = biological target: T4, AuroraB (Homo sapiens, UniProt Q96GD4)
T4 construct: purchased ProQinase GmbH (Reaction Biology); host or cells: Sf9 insect cells or E. coli (not specified per kinase)
Outline: as §1

GRK2 = biological target: T5, GRK2 (Homo sapiens, UniProt P25098)
T5 construct: either as full-length or enzymatically active fragments; purchased ProQinase GmbH (Reaction Biology)
Outline: as §1

STK39 = biological target: T6, STK39 (Homo sapiens, UniProt Q9UEW8)
T6 construct: either as full-length or enzymatically active fragments; purchased ProQinase GmbH (Reaction Biology)
Outline: as §1

CDK4/CycD1 = biological target: T7, CDK4/CycD1 (Homo sapiens, UniProt P11802)
T7 construct: either as full-length or enzymatically active fragments; purchased ProQinase GmbH (Reaction Biology); host or cells: Sf9 insect cells or E. coli (not specified per kinase)
Outline: as §1

PKCbeta2 = biological target: T8, PKCbeta2 (Homo sapiens, UniProt P05771)
T8 construct: either as full-length or enzymatically active fragments; purchased ProQinase GmbH (Reaction Biology)
Outline: as §1

GRK3 = biological target: T9, GRK3 (Homo sapiens, UniProt P35626)
T9 construct: either as full-length or enzymatically active fragments; purchased ProQinase GmbH (Reaction Biology)
Outline: as §1

PKCalpha = biological target: T10, PKCalpha (Homo sapiens, UniProt P17252)
T10 construct: either as full-length or enzymatically active fragments; purchased ProQinase GmbH (Reaction Biology)
Outline: as §1

CAMKK2 = biological target: T11, CAMKK2 (Homo sapiens, UniProt Q96RR4)
T11 construct: either as full-length or enzymatically active fragments; purchased ProQinase GmbH (Reaction Biology); host or cells: Sf9 insect cells or E. coli (not specified per kinase)
Outline: as §1

HIPK3 = biological target: T12, HIPK3 (Homo sapiens, UniProt Q9H422)
T12 construct: either as full-length or enzymatically active fragments; purchased ProQinase GmbH (Reaction Biology)
Outline: as §1

BMPR1A = biological target: T13, BMPR1A (Homo sapiens, UniProt P36894)
T13 construct: either as full-length or enzymatically active fragments; purchased ProQinase GmbH (Reaction Biology)
Outline: as §1

RPS6KA5 = biological target: T14, RPS6KA5 (Homo sapiens, UniProt O75582)
T14 construct: either as full-length or enzymatically active fragments; purchased ProQinase GmbH (Reaction Biology); host or cells: Sf9 insect cells or E. coli (not specified per kinase)
Outline: as §1

ERK2 = biological target: T15, ERK2 (Homo sapiens, UniProt P28482)
T15 construct: either as full-length or enzymatically active fragments; purchased ProQinase GmbH (Reaction Biology); host or cells: Sf9 insect cells or E. coli (not specified per kinase)
Outline: as §1

SLK = biological target: T16, SLK (Homo sapiens, UniProt Q9H2G2)
T16 construct: either as full-length or enzymatically active fragments; purchased ProQinase GmbH (Reaction Biology)
Outline: as §1

MARK4 = biological target: T17, MARK4 (Homo sapiens, UniProt Q96L34)
T17 construct: purchased ProQinase GmbH (Reaction Biology)
Outline: as §1

JNK2 = biological target: T18, JNK2 (Homo sapiens, UniProt P45984)
T18 construct: either as full-length or enzymatically active fragments; purchased ProQinase GmbH (Reaction Biology)
Outline: as §1

BMX = biological target: T19, BMX (Homo sapiens, UniProt P51813)
T19 construct: either as full-length or enzymatically active fragments; purchased ProQinase GmbH (Reaction Biology)
Outline: as §1

NLK = biological target: T20, NLK (Homo sapiens, UniProt Q9UBE8)
T20 construct: either as full-length or enzymatically active fragments; purchased ProQinase GmbH (Reaction Biology)
Outline: as §1

CAMKK1 = biological target: T21, CAMKK1 (Homo sapiens, UniProt Q8N5S9)
T21 construct: either as full-length or enzymatically active fragments; purchased ProQinase GmbH (Reaction Biology)
Outline: as §1

p38gamma = biological target: T22, p38gamma (Homo sapiens, UniProt P53778)
T22 construct: either as full-length or enzymatically active fragments; purchased ProQinase GmbH (Reaction Biology); host or cells: Sf9 insect cells or E. coli (not specified per kinase)
Outline: as §1

MEKK3 = biological target: T23, MEKK3 (Homo sapiens, UniProt Q99759)
T23 construct: purchased ProQinase GmbH (Reaction Biology); host or cells: Sf9 insect cells or E. coli (not specified per kinase)
Outline: as §1

HCK = biological target: T24, HCK (Homo sapiens, UniProt P08631)
T24 construct: purchased ProQinase GmbH (Reaction Biology)
Outline: as §1

AuroraC = biological target: T25, AuroraC (Homo sapiens, UniProt Q9UQB9)
T25 construct: either as full-length or enzymatically active fragments; purchased ProQinase GmbH (Reaction Biology)
Outline: as §1

TNK1 = biological target: T26, TNK1 (Homo sapiens, UniProt Q13470)
T26 construct: either as full-length or enzymatically active fragments; purchased ProQinase GmbH (Reaction Biology)
Outline: as §1

SGK1 = biological target: T27, SGK1 (Homo sapiens, UniProt O00141)
T27 construct: purchased ProQinase GmbH (Reaction Biology)
Outline: as §1

MKNK2 = biological target: T28, MKNK2 (Homo sapiens, UniProt Q9HBH9)
T28 construct: either as full-length or enzymatically active fragments; purchased ProQinase GmbH (Reaction Biology)
Outline: as §1

ACVR1 = biological target: T29, ACVR1 (Homo sapiens, UniProt Q04771)
T29 construct: purchased ProQinase GmbH (Reaction Biology)
Outline: as §1

EPHA8 = biological target: T30, EPHA8 (Homo sapiens, UniProt P29322)
T30 construct: either as full-length or enzymatically active fragments; purchased ProQinase GmbH (Reaction Biology); host or cells: Sf9 insect cells or E. coli (not specified per kinase)
Outline: as §1

ERBB2 = biological target: T31, ERBB2 (Homo sapiens, UniProt P04626)
T31 construct: either as full-length or enzymatically active fragments; purchased ProQinase GmbH (Reaction Biology)
Outline: as §1

T20 sequence (Q9UBE8 whole entry, the tested form may be a part): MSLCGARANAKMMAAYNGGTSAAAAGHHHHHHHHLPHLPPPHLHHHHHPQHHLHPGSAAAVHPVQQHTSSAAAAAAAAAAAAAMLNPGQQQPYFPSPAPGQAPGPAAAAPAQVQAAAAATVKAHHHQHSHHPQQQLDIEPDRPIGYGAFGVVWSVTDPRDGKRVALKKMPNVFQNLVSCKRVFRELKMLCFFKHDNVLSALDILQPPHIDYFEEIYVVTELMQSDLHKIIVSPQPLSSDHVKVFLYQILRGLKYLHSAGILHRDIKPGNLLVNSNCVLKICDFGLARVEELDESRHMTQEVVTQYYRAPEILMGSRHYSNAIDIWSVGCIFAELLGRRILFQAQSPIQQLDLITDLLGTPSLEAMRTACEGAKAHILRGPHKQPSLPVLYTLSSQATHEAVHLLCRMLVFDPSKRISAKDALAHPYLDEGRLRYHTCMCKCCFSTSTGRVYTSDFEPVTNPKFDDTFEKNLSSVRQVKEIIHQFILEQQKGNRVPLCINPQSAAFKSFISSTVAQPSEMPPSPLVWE
T16 sequence (Q9H2G2 whole entry, the tested form may be a part): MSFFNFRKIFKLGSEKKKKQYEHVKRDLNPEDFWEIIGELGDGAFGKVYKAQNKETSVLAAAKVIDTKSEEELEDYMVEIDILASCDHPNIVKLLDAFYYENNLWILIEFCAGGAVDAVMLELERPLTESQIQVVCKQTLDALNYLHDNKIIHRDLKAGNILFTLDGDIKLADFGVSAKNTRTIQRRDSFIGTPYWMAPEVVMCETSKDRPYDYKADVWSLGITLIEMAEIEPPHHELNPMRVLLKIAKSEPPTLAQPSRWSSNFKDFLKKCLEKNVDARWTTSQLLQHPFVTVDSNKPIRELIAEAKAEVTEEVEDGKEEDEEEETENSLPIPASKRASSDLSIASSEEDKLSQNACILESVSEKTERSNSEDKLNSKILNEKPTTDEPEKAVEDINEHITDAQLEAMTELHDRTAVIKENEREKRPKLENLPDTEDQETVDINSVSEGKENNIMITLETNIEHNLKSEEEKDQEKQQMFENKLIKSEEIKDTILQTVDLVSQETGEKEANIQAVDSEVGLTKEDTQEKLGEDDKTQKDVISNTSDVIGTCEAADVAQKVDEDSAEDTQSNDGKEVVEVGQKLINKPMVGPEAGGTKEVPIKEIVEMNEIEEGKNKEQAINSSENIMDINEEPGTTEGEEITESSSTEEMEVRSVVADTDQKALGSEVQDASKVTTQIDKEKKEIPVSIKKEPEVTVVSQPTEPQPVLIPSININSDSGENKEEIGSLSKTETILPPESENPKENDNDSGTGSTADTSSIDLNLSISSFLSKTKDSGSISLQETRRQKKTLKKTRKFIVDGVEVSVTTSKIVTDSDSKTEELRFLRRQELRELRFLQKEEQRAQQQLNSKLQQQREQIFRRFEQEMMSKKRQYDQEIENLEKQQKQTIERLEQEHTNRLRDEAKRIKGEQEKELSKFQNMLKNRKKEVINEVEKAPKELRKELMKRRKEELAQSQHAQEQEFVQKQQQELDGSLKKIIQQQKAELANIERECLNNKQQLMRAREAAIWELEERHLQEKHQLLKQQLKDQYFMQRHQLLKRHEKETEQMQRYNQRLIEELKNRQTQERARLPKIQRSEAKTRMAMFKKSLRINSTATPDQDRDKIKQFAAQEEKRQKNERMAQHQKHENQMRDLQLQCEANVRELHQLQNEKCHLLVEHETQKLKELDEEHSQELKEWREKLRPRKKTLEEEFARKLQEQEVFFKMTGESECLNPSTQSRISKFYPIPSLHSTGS
T2 sequence (Q05397 whole entry, the tested form may be a part): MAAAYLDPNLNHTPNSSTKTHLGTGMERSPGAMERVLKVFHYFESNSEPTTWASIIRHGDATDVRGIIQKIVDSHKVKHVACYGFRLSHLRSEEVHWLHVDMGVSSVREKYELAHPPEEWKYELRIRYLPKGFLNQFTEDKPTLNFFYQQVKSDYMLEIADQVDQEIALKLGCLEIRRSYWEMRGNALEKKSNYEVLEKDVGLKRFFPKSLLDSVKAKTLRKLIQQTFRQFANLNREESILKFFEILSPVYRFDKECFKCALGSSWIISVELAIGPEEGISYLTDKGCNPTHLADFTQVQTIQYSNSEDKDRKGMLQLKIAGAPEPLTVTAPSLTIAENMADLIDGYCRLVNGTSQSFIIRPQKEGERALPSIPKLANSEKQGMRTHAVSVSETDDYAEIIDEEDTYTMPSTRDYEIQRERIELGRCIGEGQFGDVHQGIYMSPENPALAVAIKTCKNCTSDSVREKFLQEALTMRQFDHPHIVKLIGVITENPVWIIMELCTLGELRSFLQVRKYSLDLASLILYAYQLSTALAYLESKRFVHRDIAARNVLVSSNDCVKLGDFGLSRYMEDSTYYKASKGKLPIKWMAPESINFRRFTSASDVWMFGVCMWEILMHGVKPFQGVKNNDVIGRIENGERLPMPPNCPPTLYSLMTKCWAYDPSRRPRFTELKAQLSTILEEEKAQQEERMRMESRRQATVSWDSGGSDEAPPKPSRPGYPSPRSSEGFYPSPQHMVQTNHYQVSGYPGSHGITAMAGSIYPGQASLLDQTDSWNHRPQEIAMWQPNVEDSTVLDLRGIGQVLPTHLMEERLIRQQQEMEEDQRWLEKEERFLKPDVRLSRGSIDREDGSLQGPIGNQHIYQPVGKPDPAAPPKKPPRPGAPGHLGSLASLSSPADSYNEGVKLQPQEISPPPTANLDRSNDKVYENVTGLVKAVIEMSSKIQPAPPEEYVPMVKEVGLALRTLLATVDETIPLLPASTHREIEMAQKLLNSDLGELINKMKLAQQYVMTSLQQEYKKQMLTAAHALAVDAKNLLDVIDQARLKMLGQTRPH
T8 sequence (P05771 1-673 isoform P05771-2): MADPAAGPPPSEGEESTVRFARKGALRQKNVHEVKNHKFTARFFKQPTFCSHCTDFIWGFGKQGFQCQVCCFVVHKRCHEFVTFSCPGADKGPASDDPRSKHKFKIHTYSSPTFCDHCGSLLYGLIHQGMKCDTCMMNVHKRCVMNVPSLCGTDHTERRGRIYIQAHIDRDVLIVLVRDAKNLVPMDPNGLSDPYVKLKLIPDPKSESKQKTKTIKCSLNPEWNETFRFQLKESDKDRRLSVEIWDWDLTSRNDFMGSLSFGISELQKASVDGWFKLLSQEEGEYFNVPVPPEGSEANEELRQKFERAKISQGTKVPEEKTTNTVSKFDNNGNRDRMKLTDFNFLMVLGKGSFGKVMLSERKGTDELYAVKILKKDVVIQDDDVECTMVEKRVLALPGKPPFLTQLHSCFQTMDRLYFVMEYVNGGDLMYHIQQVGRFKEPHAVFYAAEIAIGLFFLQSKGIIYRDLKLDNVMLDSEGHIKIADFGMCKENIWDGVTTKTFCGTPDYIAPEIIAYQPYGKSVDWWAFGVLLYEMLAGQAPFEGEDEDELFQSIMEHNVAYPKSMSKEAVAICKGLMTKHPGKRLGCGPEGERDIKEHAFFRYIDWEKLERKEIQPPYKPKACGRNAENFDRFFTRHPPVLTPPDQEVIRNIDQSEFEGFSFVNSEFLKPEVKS
T22 sequence (P53778 whole entry, the tested form may be a part): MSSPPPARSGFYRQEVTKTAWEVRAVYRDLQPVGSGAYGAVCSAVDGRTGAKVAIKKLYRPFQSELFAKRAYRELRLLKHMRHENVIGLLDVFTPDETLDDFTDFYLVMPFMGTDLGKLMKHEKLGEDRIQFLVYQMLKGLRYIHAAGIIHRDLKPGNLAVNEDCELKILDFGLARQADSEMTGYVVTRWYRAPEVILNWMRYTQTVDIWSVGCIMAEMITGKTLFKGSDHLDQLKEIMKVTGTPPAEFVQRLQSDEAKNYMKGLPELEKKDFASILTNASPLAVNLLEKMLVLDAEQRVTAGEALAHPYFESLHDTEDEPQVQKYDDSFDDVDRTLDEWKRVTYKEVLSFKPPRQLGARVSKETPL
T7 sequence (P11802 whole entry, the tested form may be a part): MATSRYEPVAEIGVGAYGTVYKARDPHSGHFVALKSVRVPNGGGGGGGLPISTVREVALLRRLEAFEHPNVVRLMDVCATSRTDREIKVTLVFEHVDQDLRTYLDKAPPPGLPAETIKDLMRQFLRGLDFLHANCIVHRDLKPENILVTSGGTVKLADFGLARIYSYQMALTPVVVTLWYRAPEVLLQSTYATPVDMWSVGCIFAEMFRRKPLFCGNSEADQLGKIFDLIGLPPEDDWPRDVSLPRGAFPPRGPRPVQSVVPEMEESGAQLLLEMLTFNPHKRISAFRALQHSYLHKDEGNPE
T7 sequence (P24385 whole entry partner, the tested form may be a part): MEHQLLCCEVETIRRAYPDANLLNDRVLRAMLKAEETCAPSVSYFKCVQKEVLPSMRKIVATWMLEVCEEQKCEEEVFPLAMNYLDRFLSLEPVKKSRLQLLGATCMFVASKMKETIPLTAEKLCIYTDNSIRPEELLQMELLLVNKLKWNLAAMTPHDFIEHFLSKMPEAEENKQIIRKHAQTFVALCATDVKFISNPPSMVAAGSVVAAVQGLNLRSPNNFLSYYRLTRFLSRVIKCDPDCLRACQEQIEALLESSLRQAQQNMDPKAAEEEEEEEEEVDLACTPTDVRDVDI
T25 sequence (Q9UQB9 whole entry, the tested form may be a part): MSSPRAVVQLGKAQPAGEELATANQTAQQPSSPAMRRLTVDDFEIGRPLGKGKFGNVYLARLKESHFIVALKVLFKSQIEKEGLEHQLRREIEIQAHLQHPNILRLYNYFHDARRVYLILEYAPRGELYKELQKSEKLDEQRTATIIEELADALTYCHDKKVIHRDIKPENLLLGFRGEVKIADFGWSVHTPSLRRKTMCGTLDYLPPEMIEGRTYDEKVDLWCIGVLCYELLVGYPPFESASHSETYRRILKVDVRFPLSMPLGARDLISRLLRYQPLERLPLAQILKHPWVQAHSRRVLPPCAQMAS

Compound: C=CC(=O)Nc1ccc(C(=O)N2CC[C@@H](Nc3ncc(C#N)cn3)C2)cc1 [Compound 4, (R)-N-(4-(3-((5-cyanopyrimidin-2-yl)amino)pyrrolidine-1-carbonyl)phenyl)acrylamide]
- inhibition at 1 µM (FYN): -2%
- inhibition at 1 µM (FAK): -15%
- inhibition at 1 µM (EPHA1): 3%
- inhibition at 1 µM (AuroraB): 1%
- inhibition at 1 µM (GRK2): 7%
- inhibition at 1 µM (STK39): 6%
- inhibition at 1 µM (CDK4/CycD1): 9%
- inhibition at 1 µM (PKCbeta2): 7%
- inhibition at 1 µM (GRK3): 5%
- inhibition at 1 µM (PKCalpha): -5%
- inhibition at 1 µM (CAMKK2): 9%
- inhibition at 1 µM (HIPK3): -7%
- inhibition at 1 µM (BMPR1A): 2%
- inhibition at 1 µM (RPS6KA5): 10%
- inhibition at 1 µM (ERK2): 9%
- inhibition at 1 µM (SLK): 21%
- inhibition at 1 µM (MARK4): -1%
- inhibition at 1 µM (JNK2): 6%
- inhibition at 1 µM (BMX): -4%
- inhibition at 1 µM (NLK): 4%
- inhibition at 1 µM (CAMKK1): 3%
- inhibition at 1 µM (p38gamma): 10%
- inhibition at 1 µM (MEKK3): 1%
- inhibition at 1 µM (HCK): 0%
- inhibition at 1 µM (AuroraC): 16%
- inhibition at 1 µM (TNK1): 2%
- inhibition at 1 µM (SGK1): -2%
- inhibition at 1 µM (MKNK2): 4%
- inhibition at 1 µM (ACVR1): -1%
- inhibition at 1 µM (EPHA8): 9%
- inhibition at 1 µM (ERBB2): 5%
